The NIST ThermoML archive (doi:10.1021/je049888n)
Numbers after ± are expanded uncertainties.

Key:
[1] = xn = mol fraction of the nth substance listed

C1CCNCC1 [piperidine]
Conditions	surface tension liquid-gas [mN/m]
293.15 K	30.11 ± 0.86
298.15 K	29.56 ± 0.85
303.15 K	29.09 ± 0.83
313.15 K	27.9 ± 0.81
323.15 K	27 ± 0.79

C1CCNCC1 [piperidine] + O
surface tension liquid-gas [mN/m], [1]
Conditions	293.15 K	298.15 K	303.15 K	313.15 K	323.15 K
x1 = 0.0076	57.25 ± 1.6	56.85 ± 1.5	56.45 ± 1.5	55.56 ± 1.5	54.62 ± 1.5
x1 = 0.013	43.84 ± 1.2	43.58 ± 1.2	43.32 ± 1.2	41.58 ± 1.1	41.41 ± 1.1
x1 = 0.0228	38.56 ± 1.1	38.27 ± 1	37.98 ± 1	37.43 ± 1	37.18 ± 1
x1 = 0.0458	37.78 ± 1	37.2 ± 1	36.62 ± 1	35.76 ± 0.99	34.37 ± 0.95
x1 = 0.092	35.44 ± 0.98	34.99 ± 0.97	34.54 ± 0.96	33.69 ± 0.94	32.61 ± 0.91
x1 = 0.1542	34.34 ± 0.95	34.02 ± 0.95	33.7 ± 0.94	32.67 ± 0.91	31.8 ± 0.89
x1 = 0.2672	33.9 ± 0.94	33.39 ± 0.93	32.88 ± 0.92	32.1 ± 0.9	31.26 ± 0.88
x1 = 0.378	33.27 ± 0.93	32.75 ± 0.92	32.23 ± 0.9	31.42 ± 0.89	30.4 ± 0.86
x1 = 0.5657	31.38 ± 0.89	31.15 ± 0.88	30.92 ± 0.88	30.01 ± 0.85	29.2 ± 0.83
x1 = 0.7524	31.02 ± 0.88	30.42 ± 0.86	29.82 ± 0.85	29.01 ± 0.83	28.1 ± 0.81
x1 = 1	30.11 ± 0.86	29.56 ± 0.85	29.09 ± 0.83	27.9 ± 0.81	27 ± 0.79

C1CCNC1 [pyrrolidine]
Conditions	surface tension liquid-gas [mN/m]
293.15 K	30.27 ± 0.87
298.15 K	29.75 ± 0.86
303.15 K	29.02 ± 0.84
313.15 K	27.87 ± 0.81
323.15 K	26.75 ± 0.79

C1CCNC1 [pyrrolidine] + O
surface tension liquid-gas [mN/m], [1]
Conditions	293.15 K	298.15 K	303.15 K	313.15 K	323.15 K
x1 = 0.0156	55.61 ± 1.5	55.32 ± 1.4	54.98 ± 1.4	54.1 ± 1.4	53.26 ± 1.4
x1 = 0.0564	46.07 ± 1.2	45.61 ± 1.2	45.21 ± 1.2	44.76 ± 1.2	43.89 ± 1.2
x1 = 0.1082	41.7 ± 1.1	41.19 ± 1.1	40.92 ± 1.1	40.19 ± 1.1	39.17 ± 1.1
x1 = 0.1792	39.7 ± 1.1	39.74 ± 1.1	39 ± 1.1	38.01 ± 1	37.3 ± 1
x1 = 0.3039	37.53 ± 1	37.09 ± 1	36.69 ± 1	35.68 ± 0.99	34.74 ± 0.96
x1 = 0.4212	35.97 ± 0.99	35.45 ± 0.98	35.11 ± 0.97	34.44 ± 0.96	33.15 ± 0.93
x1 = 0.5219	34.87 ± 0.97	34.4 ± 0.96	33.99 ± 0.95	32.97 ± 0.93	32.07 ± 0.9
x1 = 0.6093	33.89 ± 0.95	33.54 ± 0.94	33.07 ± 0.93	31.95 ± 0.9	31.05 ± 0.88
x1 = 0.6858	32.99 ± 0.93	32.59 ± 0.92	32.39 ± 0.92	31.11 ± 0.89	30.25 ± 0.86
x1 = 0.7844	32.1 ± 0.91	31.45 ± 0.89	31.3 ± 0.89	30.4 ± 0.87	29.2 ± 0.84
x1 = 0.9161	31.07 ± 0.89	30.42 ± 0.87	30.13 ± 0.87	29.02 ± 0.84	27.83 ± 0.81
x1 = 1	30.27 ± 0.87	29.75 ± 0.86	29.02 ± 0.84	27.87 ± 0.81	26.75 ± 0.79

O [water] + C1CCNC1
[1], x2 = 0
Conditions	surface tension liquid-gas [mN/m]
293.15 K	72.7 ± 1.8
298.15 K	72.05 ± 1.8
303.15 K	71.28 ± 1.8
313.15 K	69.32 ± 1.8
323.15 K	67.88 ± 1.7

O [water] + C1CCNCC1
[1], x2 = 0
Conditions	surface tension liquid-gas [mN/m]
293.15 K	72.7 ± 1.8
298.15 K	72.05 ± 1.8
303.15 K	71.28 ± 1.8
313.15 K	69.32 ± 1.8
323.15 K	67.88 ± 1.7
